Measurements as given in ChEMBL document CHEMBL3217683, “Matched triplicate design sets in the optimisation of glucokinase activators maximising medicinal chemistry information content” (Medchemcomm, 2013).
pEC50, pIC50: −log10 of the molar value.

Tests used:
Rattus norvegicus = species: Rattus norvegicus; experiment: Unbound clearance in rat; format: ADME, organism-based; settings: in vivo
[1] = target: Voltage-gated inwardly rectifying potassium channel KCNH2 (Homo sapiens, UniProt Q12809); experiment: Inhibition of human ERG
Voltage-gated inwardly rectifying potassium channel KCNH2, sequence (Q12809 whole entry): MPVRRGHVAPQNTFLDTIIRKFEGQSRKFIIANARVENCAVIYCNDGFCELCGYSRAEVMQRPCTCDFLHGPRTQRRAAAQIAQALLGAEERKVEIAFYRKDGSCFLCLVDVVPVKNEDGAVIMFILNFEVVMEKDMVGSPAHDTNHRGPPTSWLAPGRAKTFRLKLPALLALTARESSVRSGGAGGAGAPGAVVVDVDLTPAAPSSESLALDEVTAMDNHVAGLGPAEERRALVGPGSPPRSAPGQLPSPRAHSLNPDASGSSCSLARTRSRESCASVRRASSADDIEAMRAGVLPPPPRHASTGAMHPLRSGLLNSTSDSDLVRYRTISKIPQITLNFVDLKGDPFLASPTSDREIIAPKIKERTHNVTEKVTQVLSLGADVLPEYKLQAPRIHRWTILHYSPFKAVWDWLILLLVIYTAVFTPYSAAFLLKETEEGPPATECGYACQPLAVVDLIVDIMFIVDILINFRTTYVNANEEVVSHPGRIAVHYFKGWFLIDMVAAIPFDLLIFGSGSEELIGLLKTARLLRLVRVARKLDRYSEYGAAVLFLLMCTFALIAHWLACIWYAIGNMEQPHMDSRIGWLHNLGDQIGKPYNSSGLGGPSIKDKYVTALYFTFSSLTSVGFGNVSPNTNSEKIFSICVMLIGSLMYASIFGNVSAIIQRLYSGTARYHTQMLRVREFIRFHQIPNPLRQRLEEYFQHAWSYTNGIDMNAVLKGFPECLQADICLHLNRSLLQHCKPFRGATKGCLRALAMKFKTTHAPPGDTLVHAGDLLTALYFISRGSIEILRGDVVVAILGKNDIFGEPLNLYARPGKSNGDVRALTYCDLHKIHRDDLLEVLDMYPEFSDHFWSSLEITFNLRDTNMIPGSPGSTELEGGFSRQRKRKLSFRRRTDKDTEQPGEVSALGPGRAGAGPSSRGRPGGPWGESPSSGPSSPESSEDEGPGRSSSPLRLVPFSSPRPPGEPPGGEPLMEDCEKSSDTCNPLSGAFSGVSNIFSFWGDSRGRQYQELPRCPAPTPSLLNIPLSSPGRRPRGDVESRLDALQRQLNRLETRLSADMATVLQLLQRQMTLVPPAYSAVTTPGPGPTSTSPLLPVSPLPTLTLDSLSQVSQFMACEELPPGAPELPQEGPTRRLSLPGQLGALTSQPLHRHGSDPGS

[2] = Clearance in rat; format: ADME, organism-based; settings: in vivo
[3] = Lipophilicity, log D of the compound; format: physicochemical; settings: octanol/water
Hexokinase-4 = target: T1, Hexokinase-4 (Homo sapiens, UniProt P35557); experiment: Activity at glucokinase (unknown origin)
T1 sequence (P35557 whole entry): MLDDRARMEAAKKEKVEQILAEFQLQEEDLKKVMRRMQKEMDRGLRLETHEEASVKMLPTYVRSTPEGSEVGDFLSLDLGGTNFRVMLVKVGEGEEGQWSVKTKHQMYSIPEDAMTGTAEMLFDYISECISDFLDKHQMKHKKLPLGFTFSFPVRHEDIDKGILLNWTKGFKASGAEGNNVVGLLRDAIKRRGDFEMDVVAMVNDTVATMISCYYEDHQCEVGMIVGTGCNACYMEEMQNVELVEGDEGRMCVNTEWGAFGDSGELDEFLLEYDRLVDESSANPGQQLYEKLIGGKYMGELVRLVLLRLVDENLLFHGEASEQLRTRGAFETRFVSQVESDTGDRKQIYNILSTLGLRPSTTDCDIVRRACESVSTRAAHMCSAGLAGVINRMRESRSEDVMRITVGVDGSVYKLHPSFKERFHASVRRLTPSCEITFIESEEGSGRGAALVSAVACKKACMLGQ

For COCC[C@H](Oc1ncnc2c1cnn2-c1ccccc1Cl)C(=O)Nc1ccc(C)cn1, the CL free (Rattus norvegicus) was 500 mL/min/kg, the pIC50 [1] was 4.70 and the clearance [2] was 37 mL/min/kg. The logD [3] was 3.6.

Compound Cc1cnc(NC(=O)[C@H](COC(C)C)Oc2ncnc3c2cnn3-c2ccccc2Cl)cn1 has a CL free (Rattus norvegicus) of 130 mL/min/kg, a pIC50 [1] of less than 4.00 and a clearance [2] of 61 mL/min/kg. For the same compound, the pEC50 (Hexokinase-4) was 6.50 and the logD [3] was 2.1.

COCC[C@H](Oc1ncnc2c1cnn2-c1ncccc1Cl)C(=O)Nc1ccc(C)cn1 gave a CL free (Rattus norvegicus) of 280 mL/min/kg, a clearance [2] of 54 mL/min/kg and a pEC50 (Hexokinase-4) of 6.80. For the same compound, the logD [3] was 2.3.

COC[C@H](Oc1ncnc2c1cnn2-c1ccccc1Cl)C(=O)Nc1ccc(C)cn1 showed a pIC50 [1] of 4.30, a clearance [2] of 3.8 mL/min/kg and a pEC50 (Hexokinase-4) of 6.50. It also gave a logD [3] of 3.4.

For COC[C@H](Oc1ncnc2c1cnn2-c1ncccc1Cl)C(=O)Nc1ccc(C)cn1, the pIC50 [1] was less than 4.00, the clearance [2] was 9.3 mL/min/kg and the pEC50 (Hexokinase-4) was 5.80. It also gave a logD [3] of 2.3.

With COC[C@H](Oc1ncnc2c1cnn2-c1ncccc1Cl)C(=O)Nc1cnc(C)cn1 the pIC50 [1] was less than 4.10, the clearance [2] was 4 mL/min/kg and the pEC50 (Hexokinase-4) was 5.30. The logD [3] was 1.4.

CCOC[C@H](Oc1ncnc2c1cnn2-c1ncccc1Cl)C(=O)Nc1ccc(C)cn1 showed a CL free (Rattus norvegicus) of 340 mL/min/kg, a clearance [2] of 52 mL/min/kg and a pEC50 (Hexokinase-4) of 6.60. The logD [3] was 2.6.

Compound CCOC[C@H](Oc1ncnc2c1cnn2-c1ccccc1Cl)C(=O)Nc1cnc(C)cn1 has a CL free (Rattus norvegicus) of 150 mL/min/kg, a clearance [2] of 44 mL/min/kg and a logD [3] of 2.8.

With CCOC[C@H](Oc1ncnc2c1cnn2-c1ncccc1Cl)C(=O)Nc1cnc(C)cn1 the CL free (Rattus norvegicus) was 320 mL/min/kg, the pIC50 [1] was 4.80 and the clearance [2] was 50 mL/min/kg. For the same compound, the pEC50 (Hexokinase-4) was 5.90 and the logD [3] was 1.8.

For Cc1ccc(NC(=O)[C@H](COC(C)C)Oc2ncnc3c2cnn3-c2ccccc2Cl)nc1, the CL free (Rattus norvegicus) was 1400 mL/min/kg, the pIC50 [1] was 4.50 and the clearance [2] was 71 mL/min/kg. It also gave a pEC50 (Hexokinase-4) of 6.90 and a logD [3] of 3.9.

Cc1ccc(NC(=O)[C@H](COC(C)C)Oc2ncnc3c2cnn3-c2ncccc2Cl)nc1 gave a CL free (Rattus norvegicus) of 390 mL/min/kg, a pIC50 [1] of less than 4.00 and a clearance [2] of 62 mL/min/kg. The logD [3] was 2.9.

In the case of Cc1ccc(NC(=O)[C@H](COC2CCC2)Oc2ncnc3c2cnn3-c2ncccc2Cl)nc1, the CL free (Rattus norvegicus) was 1500 mL/min/kg, the pIC50 [1] was 4.40 and the clearance [2] was 136 mL/min/kg. The pEC50 (Hexokinase-4) was 6.80 and the logD [3] was 3.2.

With Cc1cnc(NC(=O)[C@H](COC2CCC2)Oc2ncnc3c2cnn3-c2ccccc2Cl)cn1 the CL free (Rattus norvegicus) was 650 mL/min/kg, the pIC50 [1] was 4.90 and the clearance [2] was 42 mL/min/kg. It also gave a pEC50 (Hexokinase-4) of 7.10 and a logD [3] of 3.6.

Cc1cnc(NC(=O)[C@H](COC2CCC2)Oc2ncnc3c2cnn3-c2ncccc2Cl)cn1 showed a CL free (Rattus norvegicus) of 260 mL/min/kg, a clearance [2] of 22 mL/min/kg and a pEC50 (Hexokinase-4) of 6.80. It also gave a logD [3] of 2.6.

CC(C)OC[C@H](Oc1ncnc2c1cnn2-c1ncccc1Cl)C(=O)Nc1ccc(Cl)cn1 gave a pIC50 [1] of 4.20, a pEC50 (Hexokinase-4) of 6.40 and a logD [3] of 3.5.

In the case of CC(C)OC[C@H](Oc1ncnc2c1cnn2-c1ccccc1Cl)C(=O)Nc1ccc(Cl)cn1, the pEC50 (Hexokinase-4) was 6.90.

With CCOC[C@H](Oc1ncnc2c1cnn2-c1ncccc1Cl)C(=O)Nc1ccc(Cl)cn1 the pIC50 [1] was 5.00, the pEC50 (Hexokinase-4) was 6.50 and the logD [3] was 3.

For CC(C)OC[C@H](Oc1ncnc2c1cnn2-c1ncccc1Cl)C(=O)Nc1ccc(F)cn1, the pIC50 [1] was 4.10 and the logD [3] was 2.7.

For CC(C)OC[C@H](Oc1ncnc2c1cnn2-c1ccccc1Cl)C(=O)Nc1ccc(F)cn1, the pEC50 (Hexokinase-4) was 6.70 and the logD [3] was 3.9.

With CCOC[C@H](Oc1ncnc2c1cnn2-c1ncccc1Cl)C(=O)Nc1ccc(F)cn1 the logD [3] was 2.4.

In the case of CC(C)OC[C@H](Oc1ncnc2c1cnn2-c1ncccc1Cl)C(=O)Nc1ccccn1, the pIC50 [1] was less than 4.00, the pEC50 (Hexokinase-4) was 6.30 and the logD [3] was 2.5.

In the case of CC(C)OC[C@H](Oc1ncnc2c1cnn2-c1ccccc1Cl)C(=O)Nc1ccccn1, the pIC50 [1] was 4.20, the pEC50 (Hexokinase-4) was 6.90 and the logD [3] was 3.5.

CCOC[C@H](Oc1ncnc2c1cnn2-c1ncccc1Cl)C(=O)Nc1ccccn1 gave a pIC50 [1] of less than 4.00, a pEC50 (Hexokinase-4) of 6.30 and a logD [3] of 2.1.

Work on CC(C)OC[C@H](Oc1ncnc2c1cnn2-c1ncccc1Cl)C(=O)Nc1ccc(C#N)cn1 yielded a pIC50 [1] of 4.30, a pEC50 (Hexokinase-4) of 6.20 and a logD [3] of 2.5.

CC(C)OC[C@H](Oc1ncnc2c1cnn2-c1ccccc1Cl)C(=O)Nc1ccc(C#N)cn1 showed a pEC50 (Hexokinase-4) of 6.50 and a logD [3] of 3.5.

In the case of CCOC[C@H](Oc1ncnc2c1cnn2-c1ncccc1Cl)C(=O)Nc1ccc(C#N)cn1, the pIC50 [1] was 4.70, the pEC50 (Hexokinase-4) was 6.20 and the logD [3] was 2.
